Data on 22 compounds can be found in patent US20250319110A1, “SURFACE CALR CHEMICAL INDUCERS” (THE CHILDREN'S MEDICAL CENTER CORPORATION, priority 2022, published 2025).

Where a name gives a salt, the structure may show the parent alone. Where a SMILES comes first, the peptide text is derived from it. The star is where a group is joined. Cbz = O=C(OCc1ccccc1)*

The first test has as its system reactive oxygen species (ROS). In words: ROS production by CALR agonists (ROS+ / ROS− classification of screen hits). The test is classed as cell-based, human. To be noted: CALR agonists that do not stimulate ROS production or only to negligible levels. The method, then:
To systematically evaluate pathways triggering surface CALR, a panel of 1200 bioactive small molecules in human cells were screened. Surface CALR expression was evaluated by imaging a CALR-antibody coupled with a fluorophore and by a SPLIT-TURBO ID construct targeting the association of […] (Cadherin 2), a membrane protein, and CALR. 93 out of 1200 compounds screened increased surface CALR with a robust dosage response. Chemical annotation further supported that ROS+ drugs were associated with FOXO1A and oxidative stress, while the ROS− drugs were associated with G protein-coupled receptor signaling and cellular calcium ion homeostasis. In vivo ROS− drugs induced macrophage-stem cell interaction and grooming behavior, while ROS+ drugs enhanced the macrophage-stem cell interaction, but not grooming. Collectively, the work described herein has identified ROS as a signal that upregulates surface CALR and promotes macrophage-stem cell interactions, safeguarding the development of stem cells that are stressed or damaged.
As described in the examples herein, some CALR agonists do stimulate reactive oxygen species (ROS) production; or stimulate ROS production to statistically significant levels. This group of CALR agonists are referred to herein as “ROS+ CALR agonists.” ROS+ CALR agonists include Ibudilast; zaprinast; FK-520; AG1478; bongkrekic acid; GW9508; fusidic acid; beta-lapachone; fusaric acid; fenspiride; zardaverine; docosahexaenoic acid, loxoprofen; AG1480; flufenamic acid; and MG-132.
This group of CALR agonists are referred to herein as “ROS− CALR agonists.” ROS-CALR agonists include DL-threo-1-Phenyl-2-palmitoylamino-3-morpholino-1-propanol; cambinol; ganciclovir; 8-bromo-GMP; arvanil; thiocitrulline; and isoguvacine. In some embodiments, an at least one ROS− CALR agonist can be selected from the group consisting of: DL-threo-1-Phenyl-2-palmitoylamino-3-morpholino-1-propanol; ganciclovir; 8-bromo-GMP; arvanil; thiocitrulline; and isoguvacine.
A chemical screen was conducted to identify surface CALR inducers in a ROS-associated and a ROS-independent manner (FIG. 4). Hits from the screen was validated in vivo as CALR inducers (FIGS. 5A-5B). ROS− drugs tended to induce macrophage-stem cell interaction and proliferation. ROS+ drugs tended to promote dooming (FIGS. 6A-6C).
Consider `CCCCCCCCCCCCCCCC(=O)N[C@H](CN1CCOCC1)[C@H](O)c1ccccc1` (racemic) [DL-threo-1-Phenyl-2-palmitoylamino-3-morpholino-1-propanol], for which the “ROS production class of CALR agonist” value is given as “ROS−”.

As for `Nc1nc2c(nc(Br)n2[C@@H]2O[C@H](COP(=O)(O)O)[C@@H](O)[C@H]2O)c(=O)[nH]1` [8-bromo-GMP, 8-bromo-guanosine monophosphate], the “ROS production class of CALR agonist” value is recorded as “ROS−”.

Take `CCCCC/C=C\C/C=C\C/C=C\C/C=C\CCCC(=O)NCc1ccc(O)c(OC)c1` [arvanil, N-vanillylarachidonamide]: the “ROS production class of CALR agonist” value is listed as “ROS−”.

Take `O=c1[nH]c(=S)[nH]c(-c2ccccc2)c1Cc1c(O)ccc2ccccc12` [cambinol, 5-[(2-hydroxynaphthalen-1-yl)methyl]-6-phenyl-2-sulfanylidene-1H-pyrimidin-4-one]: the “ROS production class of CALR agonist” value is listed as “ROS−”.

For the compound `Nc1nc(O)c2ncn(COC(CO)CO)c2n1` [ganciclovir, 2-Nor-2′-deoxyguanosine], the “ROS production class of CALR agonist” value was “ROS−”.

Turning to `O=C(O)C1=CCNCC1` [isoguvacine, 1,2,3,6-tetrahydropyridine-4-carboxylic acid], the “ROS production class of CALR agonist” value is recorded as “ROS−”.

For `CSC(=N)NCCC[C@H](N)C(=O)O.Cl.Cl` [thiocitrulline, N^5-[imino(methylthio)methyl]-L-ornithine, dihydrochloride], the “ROS production class of CALR agonist” value is “ROS−”.

The same test, now with this note: CALR agonists that stimulate ROS production.
Take `CC(C(=O)O)c1ccc(CC2CCCC2=O)cc1` (racemic) [loxoprofen, (RS)-2-{4-[(2-oxocyclopentyl)methyl]phenyl}propanoic acid]: the “ROS production class of CALR agonist” value is given as “ROS+”.

For the compound `COc1cc2ncnc(Nc3cccc(Cl)c3)c2cc1OC` [AG1478, N-(3-chlorophenyl)-6,7-dimethoxyquinazolin-4-amine], the “ROS production class of CALR agonist” value is recorded as “ROS+”.

On to `CC[C@@H]1/C=C(\C)C[C@H](C)C[C@H](OC)[C@H]2O[C@@](O)(C(=O)C(=O)N3CCCC[C@H]3C(=O)O[C@H](/C(C)=C/[C@@H]3CC[C@@H](O)[C@H](OC)C3)[C@H](C)[C@@H](O)CC1=O)[C@H](C)C[C@@H]2OC` [FK-520, ascomycin], for which the “ROS production class of CALR agonist” value is “ROS+”.

For the compound `O=C(O)CCc1ccc(NCc2cccc(Oc3ccccc3)c2)cc1` [GW9508, 4-[[(3-phenoxyphenyl)methyl]amino]-benzenepropanoic acid], the “ROS production class of CALR agonist” value was “ROS+”.

For the compound `CC(C)C(=O)c1c(C(C)C)nn2ccccc12` [Ibudilast, 2-methyl-1-(2-propan-2-ylpyrazolo[1,5-a]pyridin-3-yl)propan-1-one], the “ROS production class of CALR agonist” value is recorded as “ROS+”.

Regarding `CC(C)C[C@@H](C=O)NC(=O)[C@H](CC(C)C)NC(=O)[C@H](CC(C)C)NC(=O)OCc1ccccc1` [MG-132, benzyl N-[(2S)-4-methyl-1-[[(2S)-4-methyl-1-[[(2S)-4-methyl-1-oxopentan-2-yl]aamino]-1-oxopentan-2-yl]amino]-1-oxopentan-2-yl]carbamate] (Cbz-Leu-Leu-Leu-aldehyde), the “ROS production class of CALR agonist” value is “ROS+”.

Turning to `CC1(C)CCC2=C(O1)c1ccccc1C(=O)C2=O` [beta-lapachone, 2,2-dimethyl-3,4-dihydrobenzo[h]chromene-5,6-dione], the “ROS production class of CALR agonist” value was “ROS+”.

As to `CO[C@H](C/C=C\C=C\CC/C=C/C[C@H](C)/C=C/C(=C\C(=O)O)CC(=O)O)/C(C)=C\C=C(/C)C(=O)O` [bongkrekic acid, (2E,4Z,6R,8Z,10E,14E,17S,18E,20Z)-20-(carboxymethyl)-6-methoxy-2,5,17-trimethyldocosa-2,4,8,10,14,18,20-heptaenedioic acid], the “ROS production class of CALR agonist” value was “ROS+”.

For `CC/C=C\C/C=C\C/C=C\C/C=C\C/C=C\C/C=C\CCC(=O)O` [docosahexaenoic acid], the “ROS production class of CALR agonist” value is “ROS+”.

Turning to `O=C1NCC2(CCN(CCc3ccccc3)CC2)O1` [fenspiride, 8-(2-phenylethy)-1-oxa-3,8-diazaspiro[4.5]decan-2-one, monohydrochloride], the “ROS production class of CALR agonist” value is recorded as “ROS+”.

With `O=C(O)c1ccccc1Nc1cccc(C(F)(F)F)c1` [flufenamic acid, 2-[3-(trifluoromethyl)anilino]benzoic acid], the “ROS production class of CALR agonist” value is reported as “ROS+”.

Regarding `CCCCc1ccc(C(=O)O)nc1` [fusaric acid], the “ROS production class of CALR agonist” value is on record as “ROS+”.

Turning to `CC(=O)O[C@H]1C[C@@]2(C)[C@@H](C[C@@H](O)[C@H]3[C@@]4(C)CC[C@@H](O)[C@@H](C)[C@@H]4CC[C@@]32C)/C1=C(\CCC=C(C)C)C(=O)O` [fusidic acid], the “ROS production class of CALR agonist” value is “ROS+”.

Turning to `CCCOc1ccccc1-c1nc2n[nH]nc2c(=O)[nH]1` [zaprinast, 5-(2-propoxyphenyl)-2,6-dihydrotriazolo[4,5-d]pyrimidin-7-one], the “ROS production class of CALR agonist” value was “ROS+”.

Consider `COc1cc(-c2ccc(=O)[nH]n2)ccc1OC(F)F` [zardaverine, 6-[4-(difluoromethoxy)-3-methoxyphenyl]-3(2H)-pyridazinone], for which the “ROS production class of CALR agonist” value is on record as “ROS+”.
